IC50 data for six molecules are collected here from patent US20050026952A1, “Nicotinamide derivatives useful as PDE4 inhibitors” (Pfizer Inc, priority 2003, published 2005).

pIC50: −log10 of the molar value.

What is called pIC50 is the IC50 on a negative log10 scale, so that one unit is a factor of ten.

This test has as its system TNFα release from human peripheral blood mononuclear cells. Kind of test: Inhibition of LPS-stimulated TNFα release from human peripheral blood mononuclear cells (TNFα screen). Format: cell-based. Conditions: human PBMC, LPS stimulation, 18 hours incubation, TNFα in supernatant by ELISA. As for the experimental part:
Venous blood is collected from healthy volunteers and the mononuclear cells purified by centrifugation through Histopaque (Ficoll) cushions. TNFα production from these cells is stimulated by addition of lipopolysaccharide. After 18 hours incubation in the presence of LPS, the cell supernatant is removed and the concentration of TNFα in the supernatant determined by ELISA. Addition of PDE4 inhibitors reduces the amount of TNFα produced. An IC50 is determined which is equal to the concentration of compound that gives 50% inhibition of TNFα production as compared to the LPS stimulated control wells.
For orientation: ELISA stands for enzyme-linked immunosorbent assay.
On to `CSc1cccc(Oc2ncc(F)cc2C(=O)N[C@H]2CC[C@@H](NS(=O)(=O)c3cccc4cccnc34)CC2)c1` [Example 11, Syn-5-Fluoro-2-(3-methylsulphanyl-phenoxy)-N-[4-(quinoline-8-sulphonylamino)-cyclohexyl]-nicotinamide], for which the pIC50 was 10.15. `CSc1cccc(Oc2ncc(F)cc2C(=O)N[C@H]2CC[C@@H](NS(=O)(=O)c3cccc4nonc34)CC2)c1` [Example 12, Syn-N-[4-(Benzo[1,2,5]oxadiazole-4-sulphonylamino)-cyclohexyl]-5-fluoro-2-(3-methylsulphanyl-phenoxy)-nicotinamide] had a pIC50 of 9.52. The result for `CSc1cccc(Oc2ncc(F)cc2C(=O)N[C@H]2CC[C@@H](NS(=O)(=O)c3cccc4nsnc34)CC2)c1` [Example 13, Syn-N-[4-(Benzo[1,2,5]thiadiazole-4-sulphonylamino)-cyclohexyl]-5-fluoro-2-(3-methylsulphanyl-phenoxy)-nicotinamide] reads 10.05; that for `CSc1cccc(Oc2ncc(F)cc2C(=O)N[C@H]2CC[C@@H](NS(=O)(=O)c3c(O)ccc4nsnc34)CC2)c1` [Example 14], 9.00; that for `CSc1cccc(Oc2ncc(F)cc2C(=O)N[C@H]2CC[C@@H](NS(=O)(=O)c3ccc(C)cc3O)CC2)c1` [Example 15, Syn-5-Fluoro-N-[4-(2-hydroxy-4-methyl-benzenesulphonylamino)-cyclohexyl]-2-(3-methylsulphanyl-phenoxy)-nicotinamide], 8.70. For `CSc1cc(Oc2ncc(F)cc2C(=O)N[C@H]2CC[C@@H](NS(=O)(=O)c3cc(C)ccc3O)CC2)ccc1F` [Example 16, Syn-5-Fluoro-N-[4-(2-hydroxy-5-methyl-benzenesulphonylamino)-cyclohexyl]-2-(4-fluoro-3-methylsulphanyl-Phenoxy)-nicotinamide], the pIC50 was 8.46.
